# Source: US9820972B2, “Antiviral compounds highly effective as HCV-NS5A inhibitor” (priority 2013, dated 2017)
# System: GT-1a of NS5A Replicon
# Experiment: HCV double reporter gene (Renilla luciferase) replicon assay, GT-1a
# Format: cell-based, Hepatitis C virus (HCV)
# Details: GT-1a replicon; class symbols; read-out: EC50 For GT-1a of NS5A Replicon
# Method: Antiviral Assay for Inhibition Activity (EC50):
# The study is completed by a new constructed double reporter genes replicon assay system, the capacity of viral replicon in infected cell is determined by detecting the reporter gene Renilla luciferase. The relationship of reporter genes, HCV RNA replicon and viral proteins is well linear. 8 gradient concentrations for 2-fold dilution, 3 wells, 3 times repetition and 1 or 2 control drugs are set to finally determine EC50 of compound.
# THF was distilled from sodium metal and benzophenone. DCM, pentane and hexane were distilled form calcium hydride. Special raw material and intermediate in the invention were ordered by contract synthesis from Zannan SciTech Co., Let in China, others reagents were purchased from Shanghai reagent company, Aldrich, Acros etc. As intermediates or products during the synthesis is not required for the reaction and other tests the next step, the synthesis is repeated until a sufficient number of times. The invention of the prepared compounds of […] (HCV NS5A) inhibitory activity test was performed by CRO service units such as WuXi AppTec etc.
row,SMILES,EC50 [pM]
1,CNC(=O)NC(C(=O)N1CC=C[C@H]1c1nc(-c2ccc(-c3ccc(-c4c[nH]c(C5CCCN5C(=O)[C@@H](NC(=O)NC)C(C)C)n4)cc3)cc2)c[nH]1)C(C)C (some centres unmarked) [Compound 6ch],1 to 999
2,COC(=O)NC(C(=O)N1CC=C[C@H]1c1ncc(-c2ccc(-c3ccc(-c4cnc([C@@H]5CCCN5C(=O)[C@@H](NC(=O)OC)C(C)C)[nH]4)cc3)cc2)[nH]1)C1CCCCC1 (some centres unmarked) [Compound 6di],1 to 999
3,COC(=O)NC(C(=O)N1CC=C[C@H]1c1ncc(-c2ccc(-c3ccc(-c4cnc([C@@H]5CCCN5C(=O)[C@@H](NC(=O)OC)C(C)C)[nH]4)cc3)cc2)[nH]1)C1CCCCC1 (some centres unmarked) [Compound 6dj],1000 to 49900

# Same assay, conditions: Hepatitis C virus, GT1A, GT-1a replicon; class symbols; read-out: EC50 For GT-1a of NS5A Replicon
row,SMILES,EC50 [pM]
1,COC(=O)N[C@H](C(=O)N1CC=CC1c1nc(-c2ccc(-c3ccc(-c4c[nH]c([C@@H]5CCCN5C(=O)C5(NC(=O)OC)CCCC5)n4)cc3)cc2)c[nH]1)C(C)C (some centres unmarked) [Compound 6bi],1 to 999
2,COC(=O)N[C@H](C(=O)N1CC=CC1c1nc(-c2ccc(-c3ccc(-c4c[nH]c([C@@H]5CCCN5C(=O)C5(NC(=O)OC)CCCCC5)n4)cc3)cc2)c[nH]1)C(C)C (some centres unmarked) [Compound 6bj],1 to 999
3,COC(=O)N[C@H](C(=O)N1CC=CC1c1nc(-c2ccc(-c3ccc(-c4c[nH]c([C@@H]5CCCCN5C(=O)[C@@H](NC(=O)OC)C(C)C)n4)cc3)cc2)c[nH]1)C(C)C (some centres unmarked) [Compound 6bk],1 to 999
4,COC(=O)N[C@H](C(=O)N1CC=CC1c1nc(-c2ccc(-c3ccc(-c4c[nH]c([C@@H]5COCCN5C(=O)[C@@H](NC(=O)OC)C(C)C)n4)cc3)cc2)c[nH]1)C(C)C (some centres unmarked) [Compound 6bm],1 to 999
5,COC(=O)N[C@H](C(=O)N1CC(OC(=O)N2Cc3cc4c(cc3C2)OCO4)CC1c1nc(-c2ccc3c(c2)oc2cc(-c4c[nH]c([C@@H]5CCCN5C(=O)[C@@H](NC(=O)OC)C(C)C)n4)ccc23)c[nH]1)C(C)C (some centres unmarked) [Compound 6bn],1 to 999
6,COC(=O)N[C@H](C(=O)N1CC(OC(=O)N2Cc3cc4c(cc3C2)OCO4)CC1c1nc(-c2ccc3c(c2)C(F)(F)c2cc(-c4c[nH]c([C@@H]5CCCN5C(=O)[C@@H](NC(=O)OC)C(C)C)n4)ccc2-3)c[nH]1)C(C)C (some centres unmarked) [Compound 6bp],1 to 999
7,COC(=O)N[C@H](C(=O)N1CCCC1c1nc2cc(-c3ccc4c(c3)C(F)(F)c3cc(-c5c[nH]c([C@@H]6C=CCN6C(=O)[C@@H](NC(=O)OC)C(C)C)n5)ccc3-4)ccc2[nH]1)C(C)C (some centres unmarked) [Compound 6bq],1 to 999
8,COC(=O)N[C@H](C(=O)N1CC(OC(=O)N2Cc3cc4c(cc3C2)OCO4)CC1c1nc2cc(-c3ccc4c(c3)C(F)(F)c3cc(-c5c[nH]c([C@@H]6CCCN6C(=O)[C@@H](NC(=O)OC)C(C)C)n5)ccc3-4)ccc2[nH]1)C(C)C (some centres unmarked) [Compound 6br],1 to 999
9,COC(=O)N[C@H](C(=O)N1CCCC1c1nc2cc(-c3ccc4c(c3)C(F)(F)c3cc(-c5c[nH]c([C@@H]6CN(C(=O)N7Cc8cc9c(cc8C7)OCO9)CN6C(=O)[C@@H](NC(=O)OC)C(C)C)n5)ccc3-4)ccc2[nH]1)C(C)C (some centres unmarked) [Compound 6bs],> 50000
10,COC(=O)N[C@H](C(=O)N1CC(OC(=O)N2Cc3cc4c(cc3C2)OCO4)CC1c1nc(-c2ccc3c(ccc4cc(-c5c[nH]c([C@@H]6CCCN6C(=O)[C@@H](NC(=O)OC)C(C)C)n5)ccc43)c2)c[nH]1)C(C)C (some centres unmarked) [Compound 6bt],1 to 999
11,COC(=O)N[C@H](C(=O)N1CC(OC(=O)N2Cc3cc4c(cc3C2)OCO4)CC1c1nc(-c2ccc(-c3cccc4c(-c5c[nH]c([C@@H]6CCCN6C(=O)[C@@H](NC(=O)OC)C(C)C)n5)cccc34)cc2)c[nH]1)C(C)C (some centres unmarked) [Compound 6bu],1 to 999
12,COC(=O)N[C@H](C(=O)N1CN(C(=O)N2Cc3cc4c(cc3C2)OCO4)C[C@H]1c1ncc(-c2ccc(-c3cccc4c(-c5cnc([C@@H]6CCCN6C(=O)[C@@H](NC(=O)OC)C(C)C)[nH]5)cccc34)cc2)[nH]1)C(C)C [Compound 6bv],> 50000
13,CC(C)(C)OC(=O)N[C@H](C(=O)N1CCC[C@H]1c1nc(-c2ccc(-c3ccc(-c4cnc([C@@H]5C[C@@H](OC(=O)N6Cc7ccc8c(c7C6)OCO8)CN5C(=O)[C@@H](NC(=O)OC(C)(C)C)C(C)(C)C)[nH]4)cc3)cc2)c[nH]1)C(C)(C)C [Compound 6c],> 50000
14,COC(=O)N[C@@H](C(=O)N1CC=CC1c1nc(-c2ccc(-c3ccc(-c4c[nH]c(C5C=CCN5C(=O)[C@H](NC(=O)OC)c5ccccc5)n4)cc3)cc2)c[nH]1)c1ccccc1 (some centres unmarked) [Compound 6ca],1 to 999
15,COC(=O)N[C@H](C(=O)N1CCCC1c1ncc(-c2ccc3c(c2)cc2n3C(c3ccccc3)Oc3cc(-c4cnc([C@@H]5C=CCN5C(=O)[C@@H](NC(=O)OC)C(C)C)[nH]4)ccc3-2)[nH]1)C(C)C (some centres unmarked) [Compound 6cd],> 50000
16,CN(C)C(=O)N[C@@H](C(=O)N1CC=CC1c1nc(-c2ccc(-c3ccc(-c4c[nH]c(C5CCCN5C(=O)[C@H](NC(=O)N(C)C)c5ccccc5)n4)cc3)cc2)c[nH]1)c1ccccc1 (some centres unmarked) [Compound 6ce],1 to 999
17,CNC(=O)N[C@@H](C(=O)N1CC=CC1c1nc(-c2ccc(-c3ccc(-c4c[nH]c(C5CCCN5C(=O)[C@H](NC(=O)NC)c5ccccc5)n4)cc3)cc2)c[nH]1)c1ccccc1 (some centres unmarked) [Compound 6cf],1 to 999
18,CC(C)C(NC(=O)N(C)C)C(=O)N1CC=C[C@H]1c1nc(-c2ccc(-c3ccc(-c4c[nH]c(C5CCCN5C(=O)[C@@H](NC(=O)N(C)C)C(C)C)n4)cc3)cc2)c[nH]1 (some centres unmarked) [Compound 6cg],1 to 999

row,SMILES,EC50 [pM]
1,COC(=O)N[C@H](C(=O)N1CCCC1c1nc(-c2ccc(-c3ccc(-c4c[nH]c([C@@H]5C=CCN5C(=O)C(NC(=O)N(C)C)C(C)C)n4)cc3)cc2)c[nH]1)C(C)C (some centres unmarked) [Compound 6ci],1 to 999
2,CNC(=O)NC(C(=O)N1CC=C[C@H]1c1nc(-c2ccc(-c3ccc(-c4c[nH]c(C5CCCN5C(=O)[C@@H](NC(=O)OC)C(C)C)n4)cc3)cc2)c[nH]1)C(C)C (some centres unmarked) [Compound 6cj],1 to 999
3,COC(=O)N[C@H](C(=O)N1CCC[C@H]1c1ncc(-c2ccc(-c3ccc(-c4cnc([C@@H]5CN(C(=O)N6Cc7ccc(OC)c(OC)c7C6)CN5C(=O)[C@@H](NC(=O)OC)C(C)C)[nH]4)cc3)cc2)[nH]1)C(C)C [Compound 6cq],1000 to 49900
4,COC(=O)N[C@H](C(=O)N1CC=C[C@H]1c1ncc(-c2ccc(-c3ccc(-c4cnc([C@@H]5CNCN5C(=O)[C@@H](NC(=O)OC)C(C)C)[nH]4)cc3)cc2)[nH]1)C(C)C [Compound 6cv],1 to 999
5,COC(=O)N[C@H](C(=O)N1CC=C[C@H]1c1ncc(-c2ccc(-c3ccc(-c4cnc([C@@H]5CN(C(=O)OC(C)(C)C)CN5C(=O)[C@@H](NC(=O)OC)C5CCCCC5)[nH]4)cc3)cc2)[nH]1)C(C)C [Compound 6cy],1 to 999
6,COC(=O)N[C@H](C(=O)N1CCC[C@H]1c1nc(-c2ccc(-c3ccc(-c4cnc([C@@H]5C[C@@H](OC(=O)N6Cc7ccc8c(c7C6)OCO8)CN5C(=O)[C@@H](NC(=O)OC(C)(C)C)C(C)C)[nH]4)cc3)cc2)c[nH]1)C(C)C [Compound 6d],1000 to 49900
7,COC(=O)N[C@H](C(=O)N1CC=C[C@H]1c1ncc(-c2ccc(-c3ccc(-c4cnc([C@@H]5CN(S(=O)(=O)C6CC6)CN5C(=O)[C@@H](NC(=O)OC)C(C)C)[nH]4)cc3)cc2)[nH]1)C(C)C [Compound 6da],1 to 999
8,COC(=O)N[C@H](C(=O)N1CC=C[C@H]1c1ncc(-c2ccc(-c3ccc(-c4cnc([C@@H]5CN(C(=O)OC)CN5C(=O)[C@@H](NC(=O)OC)C(C)C)[nH]4)cc3)cc2)[nH]1)C(C)C [Compound 6db],1 to 999
9,COC(=O)N[C@H](C(=O)N1CCC[C@H]1c1ncc(-c2ccc(-c3ccc(-c4cnc([C@@H]5CCCN5C(=O)[C@@H](NC(=O)N(C)C)C(C)C)[nH]4)cc3)cc2)[nH]1)C(C)C [Compound 6de],1 to 999
10,COC(=O)NC(C(=O)N1CC=C[C@H]1c1ncc(-c2ccc(-c3ccc(-c4cnc([C@@H]5CCCN5C(=O)[C@@H](NC(=O)OC)C(C)C)[nH]4)cc3)cc2)[nH]1)C1CCCC1 (some centres unmarked) [Compound 6dh],1 to 999
11,COC(=O)N[C@H](C(=O)N1CC=C[C@H]1c1ncc(-c2ccc(-c3ccc(-c4cnc([C@@H]5CCCN5C(=O)[C@@H](NC(=O)OC)C5CCCCC5)[nH]4)cc3)cc2)[nH]1)C1CCCCC1 [Compound 6dk],1 to 999
12,COC(=O)N[C@H](C(=O)N1CC=C[C@H]1c1ncc(-c2ccc(-c3ccc(-c4cnc([C@@H]5C=CCN5C(=O)[C@@H](NC(=O)OC)C5CCCCC5)[nH]4)cc3)cc2)[nH]1)C1CCCCC1 [Compound 6dm],1 to 999
13,COC(=O)N[C@H](C(=O)N1CC=C[C@H]1c1ncc(-c2ccc(-c3ccc(-c4cnc([C@@H]5CCCN5C(=O)[C@@H](NC(=O)OC)C5CCCCC5)[nH]4)cc3)cc2)[nH]1)C1CCCC1 [Compound 6dn],1 to 999
14,COC(=O)N[C@H](C(=O)N1CC=C[C@H]1c1ncc(-c2ccc(-c3ccc(-c4cnc([C@@H]5CCCN5C(=O)[C@@H](NC(=O)OC)C5CCCC5)[nH]4)cc3)cc2)[nH]1)C1CCCC1 [Compound 6dp],1 to 999
15,COC(=O)N[C@H](C(=O)N1CCC(O)[C@H]1c1ncc(-c2ccc(-c3ccc(-c4cnc([C@@H]5C=CCN5C(=O)[C@@H](NC(=O)OC)C(C)C)[nH]4)cc3)cc2)[nH]1)C(C)C (some centres unmarked) [Compound 6dr],1 to 999
16,COC(=O)N[C@H](C(=O)N1CC=C[C@H]1c1nc(-c2ccc(-c3ccc(-c4cnc([C@@H]5CC6(CN5C(=O)[C@@H](NC(=O)OC)C(C)C)OCCO6)[nH]4)cc3)cc2)c[nH]1)C(C)C [Compound 6dt],1 to 999
17,COC(=O)N[C@H](C(=O)N1CC=C[C@H]1c1nc(-c2ccc(-c3ccc(-c4cnc([C@@H]5CC6(CN5C(=O)[C@H](NC(=O)OC)c5ccccc5)OCCO6)[nH]4)cc3)cc2)c[nH]1)C(C)C [Compound 6du],1 to 999
